From patent publication US20120071464A1, “METHOD OF TREATMENT OF OBSESSIVE COMPULSIVE DISORDER WITH ONDANSETRON” (priority 2009, published 2012)
Values joined by “and” are separate entries in the source; they are usually repeats but may differ in a detail not shown here. Equal values may be shown once. “Also recorded” adds a separate entry of the source.

Legend:
[1] = test system: mesenteric bed or the nerves in the heart; details: animal studies; cited from earlier work
[2] = test system: OCD patients resistant to SRI plus antipsychotic therapy; test: Ondansetron augmentation therapy (SRI and antipsychotic), single-blind 12-week study; type: in vivo, human
Excerpt: Between March 2008 and November 2008, fourteen adults aged 18 to 55 were enrolled in a study at the Institute for Neuroscience, Florence, Italy. […] All diagnoses were established utilizing a structured interview, the Structured Clinical Interview for DSM IV Axis I Disorders (SCID I). (See Spitzer, R. L. et al. ARCH GEN PSYCHIATRY 49(8):624-649) Potential subjects with a history of alcohol or substance abuse, current severe depressive symptoms, bipolar disorder, panic disorder, schizophrenia, other psychiatric conditions, heart disease, arrhythmia, liver problems (including cirrhosis), seizures, glaucoma or serious medical disease were excluded. Patients with hoarding as their only OCD symptom and women of childbearing potential not using a medically acceptable contraceptive method were also excluded. After being fully informed about the study and signing an informed consent approved by the Internal Institutional Review Board, subjects were administered an ondansetron hydrochloride (oral solution) dosage of 0.25 mg twice a day for 6 weeks, followed by 0.5 mg twice a day for 6 weeks for a total observation period of 12 weeks. […] The Y-BOCS, Montgomery-Asberg Depression Rating Scale (MADRS) (see Montgomery, S. A., BR J PSYCHIATRY 1979; 134:382-389) was administered at screening and baseline, and these assessments were repeated at every follow-up visit at 2-week intervals, along with the Clinical Global Impressions-Improvement (CGI-I) rating (see Guy, W. ECDEU Assessment Manual for Psychopharmacology. US Dept Health, Education, and Welfare publication (ADM) 76-338. Rockville, Md.: National Institute of Mental Health; 1976:218-222) and an unpublished Drug Effect scale. The Drug Effect scale asked subjects to rate “How anxious are you now?” on a scale of zero (not at all) to 10 (“the most anxious I have ever been”). Similar rating questions have been “Do you experience appearance or increment in frequency of headaches?”, “Do you experience appearance or increment in frequency of headaches fatigue?” and “Do you experience appearance or increment in frequency of headaches constipation” and so on regarding other common ondansetron side effects (diarrhea, urinary retention, itching, and dizziness). Furthermore, each evening during the first week of study medication, a study psychiatrist called the subject to ask for major or unexpected collateral effects (as chest pain, an unexplained skin rash, or tremors.). […] (See […]. et al., Am J PSYCHIATRY 1997; 154:320-321) Subjects with MADRS scores ≧18 were excluded. Ratings were administered by an investigator who was blind to the treatment condition of the patients. Given the small sample size, mean changes from baseline in rating scales were tested with a non-parametric method based on ranks (Wilcoxon signed rank test), using a two-tailed significance level of p≦0.05. Relationships among rated and demographical variables were tested with Spearman's rank correlation tests, using a two-tailed significance level of p≦0.05. Age, baseline OCD severity, and depressive symptoms were controlled for by stratifying through the Mantel-Haenszel χ2 test. Body mass index (BMI) was adjusted given the differences of ondansetron bioavailability according to BMI.

[3] = test system: patients with treatment-resistant OCD under stable treatment with SRIs; test: Ondansetron augmentation therapy (SRI), single-blind 12-week study with 4-week discontinuation follow-up; type: in vivo, human; design: average reduction in CGI scores for the whole group / YBOCS % Reduction, 6 Weeks: concentration or dose not given beside the values; details: for worsening of YBOCS symptoms during the discontinuation phase: after Week 12
Procedure: Twenty-one patients with a DSM-IV diagnosis of treatment-resistant OCD, under stable treatment with SRIs approved by the FDA for OCD therapy, received 12 weeks of single-blind ondansetron augmentation initiated at a dose of 0.25 mg twice daily for 2 weeks, and titrated to 0.5 mg twice daily for 10 weeks. Patients were rated every two weeks using the Yale Brown Obsessive Compulsive Scale (YBOCS) and Clinical Global Impressions Scale (CGI). Treatment-resistant patients were defined as having completed an adequate trial of SRIs at a moderate to high dose for at least 12 weeks and still having a YBOCS severity of >24, and CGI-Severity of ≧4. Treatment response was defined as an additional 25% reduction in YBOCS score from YBOCS score at the initiation of ondansetron augmentation, an end of treatment (EOT) period YBOCS of ≦24, and CGI-Improvement (CGI-I) of ≦2. Additionally, ondansetron was discontinued after 12 weeks and patients were followed up for another 4 weeks for relapse in YBOCs symptoms.

[4] = end of 6th week, non responders (n = 5)
[5] = end of 6th week, responders (n = 9)
[6] = end of 12th week, non responders (n = 5)
[7] = end of 12th week, responders (n = 9)
[8] = individual patients 1-14, versus baseline
[9] = end of 6th week, non responders (n = 9)
[10] = end of 12th week, non responders (n = 9)
[11] = end of 12th week, responders (n = 12)
[12] = individual patients, versus baseline
[13] = individual patients, EC: week 1 score carried forward

Cc1nccn1CC1CCc2c(c3ccccc3n2C)C1=O (stereo not drawn) [ondansetron]
effect on the mesenteric bed or the nerves in the heart [1]: did not appear to have effect on the mesenteric bed or the nerves in the heart
average YBOCS score change of the whole group (decrease) ([2]; 6 weeks, n = 14): 16%
YBOCS score decrease, Patient 11 ([2]; 12th week, with citalopram 60 mg/day and risperidone 2 mg/day): 35%
responders to ondansetron among patients on risperidone ([2]; 12 weeks, six of seven patients): 86%
side effects throughout the study (severity) ([2]; 12 weeks, up to 1 mg/day): mild to moderate
patients meeting YBOCS criteria for treatment response (reduction >25%) ([2]; end of 6th week, 3/14 patients): 21.4%
CGI (mean, SD) [2, 4]: 4.6 (1.5)
MADRS (mean, SD) [2, 4]: 8.0 (4.0)
YBOCS (mean, SD) [2, 4]: 22.8 (3.8)
CGI (mean, SD) [2, 5]: 3.4 (1.6)
MADRS (mean, SD) [2, 5]: 6.7 (2.4)
YBOCS (mean, SD) ([2]; end of 6th week, responders (n = 9), 0.25 mg twice a day added to SRI + antipsychotic): 22.6 (4.2)
CGI (mean, SD) [2, 6]: 4.8 (1.3)
MADRS (mean, SD) [2, 6]: 7.6 (3.8)
YBOCS (mean, SD) [2, 6]: 21.4 (6.1)
CGI (mean, SD) [2, 7]: 2.3 (1.2)
MADRS (mean, SD) [2, 7]: 6.8 (2.0)
YBOCS (mean, SD) ([2]; end of 12th week, responders (n = 9), 0.5 mg twice a day in weeks 7-12): 20.8 (4.1)
average YBOCS change score of the whole group (decrease) ([2]; end of 12 weeks, n = 14): 23% and 23.2%
decreased appetite (number of patients) ([2]; first 2 weeks of treatment): two
headache (number of patients) ([2]; first 2 weeks of treatment): two
significant side effects ([2]; fourteen subjects): None of the fourteen subjects experienced significant side effects or worsening of OC symptoms; also recorded: None of the subjects experienced significant or lasting side effects
Mean MADRS scores ([2]; from baseline to the end of week 1): did not change significantly
YBOCS Score, 6 Weeks ([2]; individual patients 1-14): 25 (3×) and 28 and 17 (2×) and 16 and 27 and 26 and 24 (3×) and 19 and 21
YBOCS Score, 12 Weeks ([2]; individual patients 1-14): 25 (3×) and 15 (2×) and 14 and 30 and 23 and 22 (2×) and 24 and 18 and 17 and 20
Percent Reduction at 6 weeks (YBOCS) [2, 8]: 3.84% and 28.57% and 20.00% (2×) and 15.00% and 12.90% and 21.20% and 31.42% and 27.27% and 20.80% and 4.54% and 10.52% and .00% and 19.32%
Percent Reduction at 12 weeks (YBOCS) [2, 8]: 3.84% and 28.57% (2×) and 25.00% (2×) and 30.00% and 3.22% and 27.27% (2×) and 37.14% and 22.72% and 21.05% and 16.60% and 29.03%
mild increase in anxiety levels (number of patients) ([2]; lasted only one night): One
Clinical Global Impressions-Improvement (CGI-I) scores ([2]; through week 12 (FIG. 4)): improved concurrent with improvement in the YBOCS scores
mean pulse rate or mean blood pressure ([2]; throughout the study): No change
course after discontinuation of the ondansetron ([2]; two responder patients): experienced worsening
tolerability of treatment ([3]; 12 weeks, up to 0.5 mg twice daily): well tolerated
% Decrease in YBOCS Scores ([3]; All Patients, week 2): 12.66%
Avg YBOCS Scores ([3]; All Patients, week 2): 26.29
% Decrease in YBOCS Scores ([3]; All Patients, week 4): 16.93%
Avg YBOCS Scores ([3]; All Patients, week 4): 25
% Decrease in YBOCS Scores ([3]; All Patients, week 6): 19.3%
Avg YBOCS Scores ([3]; All Patients, week 6): 24.29
% Decrease in YBOCS Scores ([3]; All Patients, week 8): 21.99%
Avg YBOCS Scores ([3]; All Patients, week 8): 23.48
% Decrease in YBOCS Scores ([3]; All Patients, week 10): 24.21%
Avg YBOCS Scores ([3]; All Patients, week 10): 22.81
% Decrease in YBOCS Scores ([3]; All Patients, week 12): 26.27%
Avg YBOCS Scores ([3]; All Patients, week 12): 22.19
Avg YBOCS Scores ([3]; All Patients, week 14 (ondansetron discontinued after week 12)): 24.95
Avg YBOCS Scores ([3]; All Patients, week 16 (ondansetron discontinued after week 12)): 25.43
% Decrease in YBOCS Scores ([3]; Non-Responders, week 2): 2.93%
% Decrease in YBOCS Scores ([3]; Non-Responders, week 4): 2.93%
% Decrease in YBOCS Scores ([3]; Non-Responders, week 6): 2.56%
% Decrease in YBOCS Scores ([3]; Non-Responders, week 8): 2.2%
% Decrease in YBOCS Scores ([3]; Non-Responders, week 10): 1.47%
% Decrease in YBOCS Scores ([3]; Non-Responders, week 12): 2.93%
% Decrease in YBOCS Scores ([3]; Responders, week 2): 20.06%
% Decrease in YBOCS Scores ([3]; Responders, week 4): 27.58%
% Decrease in YBOCS Scores ([3]; Responders, week 6): 32.03%
% Decrease in YBOCS Scores ([3]; Responders, week 8): 37.05%
% Decrease in YBOCS Scores ([3]; Responders, week 10): 41.5%
% Decrease in YBOCS Scores ([3]; Responders, week 12): 44.01%
patients experiencing a treatment response in 12 weeks or less ([3]; Twelve of the 21 patients): 57%
difference between YBOCS score at baseline and after 12 weeks, non-responders ([3]; after 12 weeks): 2.9%
reduction in CGI-I from baseline, responders ([3]; after 12 weeks): 77%
reduction in YBOCS from baseline, responders ([3]; after 12 weeks): 44%
worsening of YBOCS symptoms during the discontinuation phase ([3]; all patients): 14.6%
worsening of YBOCS symptoms during the discontinuation phase ([3]; responders): 38.3%
patients experiencing response within the first 6 weeks ([3]; eight of 21 patients, 25% improvement in YBOCS, EOT YBOCS <24, CGI-I=1-2): 38%
CGI (mean, SD) [3, 9]: 4.63 (0.5)
YBOCS (mean, SD) [3, 9]: 29.56 (4.0)
CGI (mean, SD) ([3]; end of 6th week, responders (n = 12)): 1.92 (0.7)
YBOCS (mean, SD) ([3]; end of 6th week, responders (n = 12), added to SRI): 20.33 (3.8)
CGI (mean, SD) [3, 10]: 4.88 (0.4)
YBOCS (mean, SD) [3, 10]: 29.44 (4.8)
CGI (mean, SD) [3, 11]: 1.17 (0.4)
YBOCS (mean, SD) [3, 11]: 16.75 (2.7)
CGI-I Score, 6 Weeks ([3]; individual patients): 2 (7×) and 3 (2×) and 5 (6×) and 1 (3×) and 4 (3×)
CGI-I Score, 12 Weeks ([3]; individual patients): 1 (10×) and 5 (8×) and 4 and 2 (2×)
YBOCS % Reduction, 6 Weeks [3, 12]: 31.25% and 34.48% and 9.68% and 16.00% and 32.14% and 34.38% and 42.42% and 28.95% and 27.27% and 7.69% and 41.67% and 0.00% (3×) and 5.00% and 37.04% and 19.35% and −3.57% (2×) and 40.74% and 6.06%
YBOCS % Reduction, 12 Weeks [3, 12]: 34.38% and 41.38% and 9.68% and 44.00% and 42.86% and 50.00% and 51.52% and 44.74% and 42.42% and 11.54% and 45.83% and 13.79% and 2.50% and −6.25% and 48.15% and 38.71% and −7.14% and −3.57% and 44.44% and −3.85% and 9.09%
YBOCS Score, 6 Weeks [3, 13]: 22 and 19 (3×) and 28 and 21 (2×) and 27 and 24 (2×) and 14 and 29 (3×) and 38 and 32 and 17 and 25 and 16 and 26 and 31
YBOCS Score, 12 Weeks [3, 13]: 21 (2×) and 17 and 28 and 14 (2×) and 16 (3×) and 19 (2×) and 23 and 13 and 25 and 39 and 34 and 30 (2×) and 29 and 15 and 27
average reduction in CGI scores for the whole group ([3]; n = 21, 12 weeks): 46%
average reduction in YBOCS-rated symptoms of the whole group ([3]; n = 21, 12 weeks): 26.3%
